# Measured values reported in ChEMBL document CHEMBL1201862, “PubChem BioAssay data set” (2004).
# The source made the active and inactive calls.
# Legend:
# [1] = molecular target: T1, Neuropeptide Y receptor type 1 (Homo sapiens, UniProt P25929); format: functional;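 also: HEK293 cells with a CNG channel challenged with NPY then isoproterenol; potency as antagonist that reverses NPY suppression of cAMP signal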
# T1 sequence (P25929 whole entry): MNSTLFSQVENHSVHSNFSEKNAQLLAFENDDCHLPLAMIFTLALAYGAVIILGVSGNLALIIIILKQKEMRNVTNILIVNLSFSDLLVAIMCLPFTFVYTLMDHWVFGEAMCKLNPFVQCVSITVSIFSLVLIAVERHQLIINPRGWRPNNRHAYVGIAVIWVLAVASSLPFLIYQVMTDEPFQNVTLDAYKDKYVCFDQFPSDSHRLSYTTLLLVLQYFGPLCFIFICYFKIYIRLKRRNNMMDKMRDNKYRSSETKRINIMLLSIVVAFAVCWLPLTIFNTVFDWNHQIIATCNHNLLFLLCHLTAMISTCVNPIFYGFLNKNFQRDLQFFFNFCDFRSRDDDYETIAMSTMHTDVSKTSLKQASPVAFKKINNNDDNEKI
# [2] = molecular target: T2, Neuropeptide Y receptor type 2 (Homo sapiens, UniProt P49146); format: functional, cell-based;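 also: HEK293 cells expressing the receptor and a CNG channel; stimulus was NPY near EC95 followed by isoproterenol to raise cAMP; antagonist potency measured as restoring cAMP signal that NPY suppresses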
# T2 sequence (P49146 whole entry): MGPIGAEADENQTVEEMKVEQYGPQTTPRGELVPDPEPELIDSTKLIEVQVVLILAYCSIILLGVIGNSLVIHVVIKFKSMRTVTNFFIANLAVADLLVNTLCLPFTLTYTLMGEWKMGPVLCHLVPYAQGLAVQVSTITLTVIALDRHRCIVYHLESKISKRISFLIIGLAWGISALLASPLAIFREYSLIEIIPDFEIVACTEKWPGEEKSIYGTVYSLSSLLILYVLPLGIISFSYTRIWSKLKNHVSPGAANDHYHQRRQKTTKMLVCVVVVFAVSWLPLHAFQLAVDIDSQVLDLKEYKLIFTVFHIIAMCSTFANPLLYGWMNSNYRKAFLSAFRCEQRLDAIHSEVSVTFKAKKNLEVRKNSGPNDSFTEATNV
# CAAX prenyl protease 2 [3] = molecular target: T3, CAAX prenyl protease 2 (Homo sapiens, UniProt Q9Y256); experiment: inhibition of Ras-converting CAAX protease Rce1 – biochemical, yeast membranes, quenched-peptide fluorescence, cherry-pick, dose response (AID 588849)
# T3 sequence (Q9Y256 whole entry): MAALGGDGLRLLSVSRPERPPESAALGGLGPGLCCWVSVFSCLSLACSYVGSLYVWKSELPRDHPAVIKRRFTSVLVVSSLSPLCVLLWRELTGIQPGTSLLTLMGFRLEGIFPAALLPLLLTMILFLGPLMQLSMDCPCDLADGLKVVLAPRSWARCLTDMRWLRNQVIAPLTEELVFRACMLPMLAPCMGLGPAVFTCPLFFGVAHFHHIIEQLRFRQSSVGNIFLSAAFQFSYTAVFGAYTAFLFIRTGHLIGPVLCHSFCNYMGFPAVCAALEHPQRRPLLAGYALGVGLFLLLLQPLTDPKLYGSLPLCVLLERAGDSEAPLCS
# [4] = molecular target: T4, DNA repair and recombination protein RAD54-like (Homo sapiens, UniProt Q92698); experiment: RAD54 Holliday junction migration blockers – biochemical, fluorescence, cherry-picked samples, dose series, confirmation (AID 651657); format: functional
# T4 sequence (Q92698 whole entry): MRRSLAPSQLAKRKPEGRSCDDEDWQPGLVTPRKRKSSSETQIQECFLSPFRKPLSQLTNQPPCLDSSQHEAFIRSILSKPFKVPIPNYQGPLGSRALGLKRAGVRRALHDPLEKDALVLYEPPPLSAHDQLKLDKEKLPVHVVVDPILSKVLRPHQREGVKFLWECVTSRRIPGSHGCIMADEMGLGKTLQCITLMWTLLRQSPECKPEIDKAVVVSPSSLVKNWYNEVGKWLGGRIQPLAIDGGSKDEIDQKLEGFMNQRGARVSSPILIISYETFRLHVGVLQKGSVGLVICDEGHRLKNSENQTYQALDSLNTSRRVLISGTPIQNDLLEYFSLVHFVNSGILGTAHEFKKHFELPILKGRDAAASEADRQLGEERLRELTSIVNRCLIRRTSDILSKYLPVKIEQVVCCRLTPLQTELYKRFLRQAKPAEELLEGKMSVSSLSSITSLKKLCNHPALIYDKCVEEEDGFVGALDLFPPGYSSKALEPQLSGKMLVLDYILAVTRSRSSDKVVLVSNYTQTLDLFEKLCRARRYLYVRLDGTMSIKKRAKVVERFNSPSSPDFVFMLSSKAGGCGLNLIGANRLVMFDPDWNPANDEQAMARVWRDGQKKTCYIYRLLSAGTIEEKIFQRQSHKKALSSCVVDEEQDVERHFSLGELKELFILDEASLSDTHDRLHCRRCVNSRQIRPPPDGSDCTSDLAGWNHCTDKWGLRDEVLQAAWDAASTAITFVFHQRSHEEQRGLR
# [5] = molecular target: T5, DNA repair protein RAD52 homolog (Homo sapiens, UniProt P43351); format: functional, biochemical
# T5 sequence (P43351 whole entry): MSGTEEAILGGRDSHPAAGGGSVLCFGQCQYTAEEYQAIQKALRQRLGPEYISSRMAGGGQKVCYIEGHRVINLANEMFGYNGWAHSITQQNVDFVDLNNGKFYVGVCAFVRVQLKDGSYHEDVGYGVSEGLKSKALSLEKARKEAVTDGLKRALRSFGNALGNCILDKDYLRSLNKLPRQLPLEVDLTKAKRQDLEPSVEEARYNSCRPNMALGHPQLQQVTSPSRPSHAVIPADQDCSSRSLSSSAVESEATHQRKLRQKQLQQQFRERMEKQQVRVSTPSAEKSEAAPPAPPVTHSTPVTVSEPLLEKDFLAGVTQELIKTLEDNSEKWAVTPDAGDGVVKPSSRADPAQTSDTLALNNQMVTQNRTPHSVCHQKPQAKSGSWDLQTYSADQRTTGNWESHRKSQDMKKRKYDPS
# [6] = molecular target: Aryl hydrocarbon receptor (Homo sapiens, UniProt P35869); experiment: Luminescence-based cell-based high throughput dose response assay for activators of the Aryl Hydrocarbon Receptor (AHR). [Related pubchem assays: 2796 (Primary screen (AHR activators in singlicate)), 2845 (Confirmation screen (AHR activators in triplicate)), 434939 (Counterscreen (PXR activators in triplicate)), 2804 (Summary (AHR activators))]; format: ADME
# CAAX prenyl protease 2 [7] = molecular target: T6, CAAX prenyl protease 2 (Saccharomyces cerevisiae S288c, UniProt Q03530); format: biochemical
# T6 sequence (Q03530 whole entry): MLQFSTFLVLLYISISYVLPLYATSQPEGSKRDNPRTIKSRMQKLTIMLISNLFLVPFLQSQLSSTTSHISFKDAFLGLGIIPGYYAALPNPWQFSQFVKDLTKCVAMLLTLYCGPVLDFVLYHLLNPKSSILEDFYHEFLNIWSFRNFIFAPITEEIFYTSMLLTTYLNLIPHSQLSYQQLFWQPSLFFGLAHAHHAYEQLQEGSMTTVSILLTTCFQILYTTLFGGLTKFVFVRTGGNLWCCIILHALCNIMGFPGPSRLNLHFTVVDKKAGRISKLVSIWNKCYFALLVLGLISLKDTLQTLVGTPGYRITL
# Trypsin = Trypsin (Sus scrofa, UniProt P00761); experiment: trypsin protease activity blockade – biochemical, quenched peptide fluorescence, cherry-pick, selectivity assay for Rce1 protease inhibitor project, dose response (AID 488789)
# H4 = experiment: Luminescence Cell-Based Dose Response HTS to Identify Activators of 5'UTR Stem-Loop Driven Prion Protein mRNA Translation in H4 Neuroglioblastoma Cells. [Related pubchem assays: 1829 (Project Summary), 1814 (Primary HTS)]; format: functional; conditions: Homo sapiens
# [8] = Luminescence Cell-Based Dose Response to Identify Activators of Luciferase Translation or Activity in H4-C Neuroglioblastoma Cells. [Related pubchem assays: 1829 (Project Summary), 1814 (Primary HTS)]; format: functional
# [9] = Luminescence Cell-Based Dose Response HTS to Identify Activators of Luciferase Translation or Activity in H4 […] Cells. [Related pubchem assays: 1829 (Project Summary), 1814 (Primary HTS)]; format: functional
# HeLa = experiment: ATP-based viability loss in HeLa cells – cell-based, CellTiter-Glo luminescence, cherry-pick samples, cytotoxicity control for MITF activator project, dose response (AID 540259); format: functional; conditions: Homo sapiens
# [10] = Luminescence Cell-Based Dose Confirmation to Identify Activators of 5'UTR Stem-Loop Driven Alpha-Synuclein mRNA Translation in H4 Neuroglioblastoma Cells. [Related pubchem assays: 1829 (Project Summary), 1814 (Primary HTS)]; format: functional
# [11] = Luminescence Cell-Based Dose Response to Identify Activators of 5'UTR Stem-Loop Driven Prion Protein mRNA Translation in H4-C Neuroglioblastoma Cells. [Related pubchem assays: 1829 (Project Summary), 1814 (Primary HTS)]; format: functional
# Cytochrome P450 2C19 = Cytochrome P450 2C19 (Homo sapiens, UniProt P33261); experiment: qHTS Assay for Inhibitors and Substrates of Cytochrome P450 2C19. [Related pubchem assays: 410 ]; format: ADME; conditions: read-out: Potency
# Cytochrome P450 2D6 = Cytochrome P450 2D6 (Homo sapiens, UniProt P10635); experiment: qHTS Assay for Inhibitors and Substrates of Cytochrome P450 2D6. [Related pubchem assays: 410 ]; format: ADME; conditions: read-out: Potency
# Cytochrome P450 3A4 = Cytochrome P450 3A4 (Homo sapiens, UniProt P08684); conditions: Potency;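 also: confirmatory qHTS run detecting inhibitors and substrates of CYP3A4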
# [12] = molecular target: Epstein-Barr nuclear antigen 1 (Epstein-Barr virus (strain B95-8) (HHV-4) (Human herpesvirus 4), UniProt P03211); experiment: inhibition of EBV nuclear antigen 1 DNA binding – biochemical, fluorescence polarization, 1536-well, dose response (AID 2381); set-up: species or system human gammaherpesvirus 4;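 also: fluorescence polarization of a Cy5 DNA probe bound by EBNA-1 protein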
# [13] = molecular target: T7, Short transient receptor potential channel 4 (Mus musculus, UniProt Q9QUQ5); experiment: block of DAMGO-driven TRPC4 calcium entry – cell-based, HEK293 TRPC4/mu-opioid, Fluo-4 calcium, dose response (AID 434942); format: functional;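 also: potency of inhibitors blocking the TRPC4 calcium response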
# T7 sequence (Q9QUQ5 whole entry): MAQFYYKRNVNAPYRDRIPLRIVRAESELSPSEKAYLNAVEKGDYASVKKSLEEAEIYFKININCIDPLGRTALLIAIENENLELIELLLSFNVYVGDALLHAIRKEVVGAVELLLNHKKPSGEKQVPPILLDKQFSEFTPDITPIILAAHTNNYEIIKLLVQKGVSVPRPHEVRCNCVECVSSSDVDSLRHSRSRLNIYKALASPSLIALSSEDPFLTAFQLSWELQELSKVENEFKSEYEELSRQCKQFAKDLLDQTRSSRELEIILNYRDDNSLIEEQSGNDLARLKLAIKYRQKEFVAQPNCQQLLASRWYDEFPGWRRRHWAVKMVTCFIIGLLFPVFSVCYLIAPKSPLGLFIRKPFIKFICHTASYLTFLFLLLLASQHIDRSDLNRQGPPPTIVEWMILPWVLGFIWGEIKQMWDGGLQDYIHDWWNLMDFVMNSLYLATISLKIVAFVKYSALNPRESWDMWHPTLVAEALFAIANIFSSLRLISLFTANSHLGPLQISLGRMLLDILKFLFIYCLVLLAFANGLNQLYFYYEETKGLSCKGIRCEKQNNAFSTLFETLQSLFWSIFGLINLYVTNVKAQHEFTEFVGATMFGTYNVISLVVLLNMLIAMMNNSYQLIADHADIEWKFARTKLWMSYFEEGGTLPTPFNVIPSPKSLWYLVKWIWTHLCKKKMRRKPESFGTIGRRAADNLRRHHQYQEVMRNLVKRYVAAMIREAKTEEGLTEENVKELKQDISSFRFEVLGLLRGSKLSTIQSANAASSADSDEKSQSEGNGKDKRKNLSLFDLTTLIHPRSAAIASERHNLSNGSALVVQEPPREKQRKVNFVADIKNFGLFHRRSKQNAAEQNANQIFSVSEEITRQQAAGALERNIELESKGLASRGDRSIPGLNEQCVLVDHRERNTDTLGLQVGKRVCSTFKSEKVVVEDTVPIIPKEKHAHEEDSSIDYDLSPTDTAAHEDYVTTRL
# [14] = molecular target: Lytic switch protein BZLF1 (Epstein-Barr virus (strain B95-8) (HHV-4) (Human herpesvirus 4), UniProt P03206); experiment: inhibition of BZLF1 ZTA DNA binding – biochemical, fluorescence polarization, Epstein-Barr virus, 1536-well, counter-screen for EBNA-1 inhibitor project, dose response (AID 2377); set-up: species or system human gammaherpesvirus 4;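 also: fluorescence polarization of Cy5-labelled ZRE DNA probe bound by purified Zta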
# Chain of Lytic switch protein BZLF1 (P03206 whole entry): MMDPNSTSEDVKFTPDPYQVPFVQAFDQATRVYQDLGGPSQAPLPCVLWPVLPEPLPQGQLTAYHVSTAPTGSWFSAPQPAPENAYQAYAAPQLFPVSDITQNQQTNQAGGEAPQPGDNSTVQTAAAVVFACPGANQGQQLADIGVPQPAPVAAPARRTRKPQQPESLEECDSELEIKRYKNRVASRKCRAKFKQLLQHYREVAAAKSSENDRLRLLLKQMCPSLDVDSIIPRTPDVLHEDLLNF
# Chain of Aryl hydrocarbon receptor (P35869 whole entry): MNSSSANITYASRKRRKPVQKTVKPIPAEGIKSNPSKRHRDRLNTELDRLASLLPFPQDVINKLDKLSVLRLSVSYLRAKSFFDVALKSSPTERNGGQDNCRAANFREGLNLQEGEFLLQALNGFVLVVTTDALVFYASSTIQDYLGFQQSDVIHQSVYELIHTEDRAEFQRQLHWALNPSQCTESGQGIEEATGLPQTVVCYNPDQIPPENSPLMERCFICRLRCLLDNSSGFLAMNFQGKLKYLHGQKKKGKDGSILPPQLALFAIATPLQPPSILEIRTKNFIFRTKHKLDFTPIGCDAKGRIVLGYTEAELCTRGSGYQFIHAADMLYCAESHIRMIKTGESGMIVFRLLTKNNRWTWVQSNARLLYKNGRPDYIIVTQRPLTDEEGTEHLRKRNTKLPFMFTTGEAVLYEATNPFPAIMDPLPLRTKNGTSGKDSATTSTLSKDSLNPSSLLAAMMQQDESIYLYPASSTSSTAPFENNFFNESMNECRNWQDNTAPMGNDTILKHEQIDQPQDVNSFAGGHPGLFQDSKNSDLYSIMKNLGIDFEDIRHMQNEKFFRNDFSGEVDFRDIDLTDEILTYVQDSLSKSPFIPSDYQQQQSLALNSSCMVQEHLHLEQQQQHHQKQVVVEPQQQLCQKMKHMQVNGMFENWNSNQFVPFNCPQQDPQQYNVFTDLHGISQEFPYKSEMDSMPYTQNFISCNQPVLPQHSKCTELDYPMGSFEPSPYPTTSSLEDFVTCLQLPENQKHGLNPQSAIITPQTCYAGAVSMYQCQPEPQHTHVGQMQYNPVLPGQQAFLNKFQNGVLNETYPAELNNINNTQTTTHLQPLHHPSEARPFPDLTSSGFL
# Chain of Epstein-Barr nuclear antigen 1 (P03211 whole entry): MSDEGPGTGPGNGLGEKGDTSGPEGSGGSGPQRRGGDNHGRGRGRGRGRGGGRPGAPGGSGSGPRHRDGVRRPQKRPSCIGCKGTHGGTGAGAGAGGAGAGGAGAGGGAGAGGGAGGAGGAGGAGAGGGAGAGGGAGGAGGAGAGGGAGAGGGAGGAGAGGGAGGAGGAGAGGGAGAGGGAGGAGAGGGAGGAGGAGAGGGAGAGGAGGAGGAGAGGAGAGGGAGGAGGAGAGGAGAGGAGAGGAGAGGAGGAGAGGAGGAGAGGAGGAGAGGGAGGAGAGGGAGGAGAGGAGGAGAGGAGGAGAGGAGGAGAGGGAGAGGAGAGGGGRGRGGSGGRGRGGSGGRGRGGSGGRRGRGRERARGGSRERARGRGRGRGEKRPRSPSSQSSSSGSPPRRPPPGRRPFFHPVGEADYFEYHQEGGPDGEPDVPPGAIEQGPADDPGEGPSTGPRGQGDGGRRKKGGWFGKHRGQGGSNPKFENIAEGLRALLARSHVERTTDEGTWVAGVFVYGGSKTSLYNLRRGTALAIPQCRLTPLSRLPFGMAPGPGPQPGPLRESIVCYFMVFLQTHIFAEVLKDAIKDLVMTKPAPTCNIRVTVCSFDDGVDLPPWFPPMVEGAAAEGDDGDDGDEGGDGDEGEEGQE
# Chain of Trypsin (P00761 whole entry): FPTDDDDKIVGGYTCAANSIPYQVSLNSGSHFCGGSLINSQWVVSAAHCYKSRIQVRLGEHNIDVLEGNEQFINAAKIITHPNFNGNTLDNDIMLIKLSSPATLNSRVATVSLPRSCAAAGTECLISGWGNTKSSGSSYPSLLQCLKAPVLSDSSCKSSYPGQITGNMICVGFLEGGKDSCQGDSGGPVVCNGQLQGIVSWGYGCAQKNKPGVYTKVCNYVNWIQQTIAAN
# Chain of Cytochrome P450 3A4 (P08684 whole entry): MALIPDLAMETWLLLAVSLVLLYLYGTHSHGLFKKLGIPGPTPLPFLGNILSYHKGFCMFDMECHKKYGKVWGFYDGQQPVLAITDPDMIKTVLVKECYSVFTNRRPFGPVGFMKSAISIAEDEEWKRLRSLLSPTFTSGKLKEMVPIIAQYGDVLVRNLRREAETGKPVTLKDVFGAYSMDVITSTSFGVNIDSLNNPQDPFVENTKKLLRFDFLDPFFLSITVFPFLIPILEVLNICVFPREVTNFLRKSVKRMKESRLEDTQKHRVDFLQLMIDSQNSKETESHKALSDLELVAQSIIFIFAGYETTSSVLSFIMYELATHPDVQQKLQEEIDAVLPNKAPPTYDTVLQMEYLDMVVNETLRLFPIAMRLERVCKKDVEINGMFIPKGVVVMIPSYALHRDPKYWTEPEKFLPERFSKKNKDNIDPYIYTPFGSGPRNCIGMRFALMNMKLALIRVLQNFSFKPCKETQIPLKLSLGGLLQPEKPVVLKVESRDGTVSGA
# Chain of Cytochrome P450 2D6 (P10635 whole entry): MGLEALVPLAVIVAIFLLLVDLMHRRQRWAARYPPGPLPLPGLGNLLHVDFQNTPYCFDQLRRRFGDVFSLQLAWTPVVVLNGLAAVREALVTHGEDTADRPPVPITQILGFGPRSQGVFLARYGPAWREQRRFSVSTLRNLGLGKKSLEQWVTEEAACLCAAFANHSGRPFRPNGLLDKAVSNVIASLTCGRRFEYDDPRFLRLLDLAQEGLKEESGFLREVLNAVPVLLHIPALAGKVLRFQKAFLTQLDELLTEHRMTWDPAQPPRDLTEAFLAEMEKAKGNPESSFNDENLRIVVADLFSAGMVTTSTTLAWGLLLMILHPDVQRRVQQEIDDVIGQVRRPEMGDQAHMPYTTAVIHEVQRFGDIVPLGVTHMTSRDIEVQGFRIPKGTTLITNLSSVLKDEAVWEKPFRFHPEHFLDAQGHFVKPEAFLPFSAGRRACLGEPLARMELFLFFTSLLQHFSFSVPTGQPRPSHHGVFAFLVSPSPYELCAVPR
# Chain of Cytochrome P450 2C19 (P33261 whole entry): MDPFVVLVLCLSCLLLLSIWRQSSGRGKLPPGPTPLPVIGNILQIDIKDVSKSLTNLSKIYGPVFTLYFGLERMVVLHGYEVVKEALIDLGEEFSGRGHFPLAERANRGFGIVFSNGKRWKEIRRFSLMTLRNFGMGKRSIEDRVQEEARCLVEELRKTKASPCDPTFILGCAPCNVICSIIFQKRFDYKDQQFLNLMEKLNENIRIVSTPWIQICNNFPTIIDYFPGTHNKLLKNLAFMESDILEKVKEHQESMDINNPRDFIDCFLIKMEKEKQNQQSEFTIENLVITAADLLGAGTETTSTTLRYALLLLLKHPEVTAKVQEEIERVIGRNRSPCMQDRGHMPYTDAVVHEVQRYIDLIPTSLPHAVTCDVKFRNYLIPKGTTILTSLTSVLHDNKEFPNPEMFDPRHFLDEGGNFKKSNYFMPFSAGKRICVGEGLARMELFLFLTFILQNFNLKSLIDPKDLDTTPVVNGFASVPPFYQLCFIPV
structure (smiles),measurement,setting,value
COc1cccc(-c2ccc(C#N)c(SCC(=O)NCCc3ccc(Cl)cc3)n2)c1,IC50,[1],4.58 µM (active)
same,IC50,[2],6.45 µM (active)
CN(C)CCCN1C(=O)c2cccc3cccc(c23)C1=O,AC50,CAAX prenyl protease 2 [3],5.4 µM (active)
same,AC50,[4],11.1 µM (active)
same,AC50,[5],16.4 µM (active)
same,EC50,[6],0.815 µM (active)
same,AC50,CAAX prenyl protease 2 [7],68.1 µM (active)
same,AC50,Trypsin,38 µM (active)
FC(F)Oc1ccc(/N=C2\SCC3CCCCN23)cc1 (stereo not drawn),EC50,H4,30.2 µM (inconclusive)
same,EC50,[8],0.34 µM (active)
same,EC50,[9],< 0.1 µM (active)
same,AC50,HeLa,342 µM (active)
same,EC50,[10],0.405 µM (active)
same,EC50,[11],1.04 µM (active)
COC(=O)N1CCc2cc(OC)c(OC)cc2C1Cc1ccc(OC)cc1 (stereo not drawn),AC50,Cytochrome P450 2C19,3.98 µM (inconclusive)
same,AC50,Cytochrome P450 2D6,3.16 µM (inconclusive)
same,AC50,Cytochrome P450 3A4,3.98 µM (inconclusive)
CCCc1nn(C)c(C(=O)Nc2cccc3ccccc23)c1Cl,EC50,[6],5.22 µM (active)
Cc1nc2cc(Nc3nnc(-c4ccccc4)c4ccccc34)ccc2n1C,EC50,H4,31.4 µM (active)
same,EC50,[8],> 12 µM (not active)
same,EC50,[9],< 0.1 µM (active)
same,EC50,[10],2.91 µM (active)
same,EC50,[11],> 12 µM (not active)
COc1cccc(N2CC(=O)C(c3nc(O)c4ccccc4n3)=C2N)c1,IC50,[12],10.2 µM (not active)
same,EC50,[13],0.133 µM (active)
same,IC50,[14],> 111 µM (not active)
O=C(CCCCCn1c(=S)[nH]c2cc3c(cc2c1=O)OCO3)N1CCN(Cc2ccccc2)CC1,IC50,[12],14.9 µM (not active)
same,IC50,[14],> 111 µM (not active)
